Reference: patent US4063014A, “4"-O-sulfonyl erythromycin-9-O-oxime derivatives” (Abbott Laboratories, priority 1975, dated 1977)

Tested on: S.aureus (Smith)
Assay: S.aureus (Smith) infection, oral medication
Assay type: in vivo
Parameters: DOSAGE LEVELS 300 / DOSAGE LEVELS 150 / DOSAGE LEVELS 75 / DOSAGE LEVELS 37.5 / DOSAGE LEVELS 18.75: unit not given here
Details: for DOSAGE LEVELS 18.75: dosage level 18.75, infection 10-100 LD50, Rt-IP; for DOSAGE LEVELS 37.5: dosage level 37.5, infection 10-100 LD50, Rt-IP; for DOSAGE LEVELS 75: dosage level 75, infection 10-100 LD50, Rt-IP; for DOSAGE LEVELS 150: dosage level 150, infection 10-100 LD50, Rt-IP; for DOSAGE LEVELS 300: dosage level 300, infection 10-100 LD50, Rt-IP

| SMILES | DOSAGE LEVELS 18.75 | DOSAGE LEVELS 37.5 | DOSAGE LEVELS 75 | DOSAGE LEVELS 150 | DOSAGE LEVELS 300 | ED50 (Staphylococcus aureus, infection 10-100 LD50, Rt-IP, read-out: CD50 (the source's name)) |
| --- | --- | --- | --- | --- | --- | --- |
| CC[C@H]1OC(=O)[C@H](C)[C@@H](O[C@H]2C[C@@](C)(OC)[C@@H](OS(=O)(=O)CCNC(=S)Nc3ccccc3)[C@H](C)O2)[C@H](C)[C@@H](O[C@@H]2O[C@H](C)C[C@H](N(C)C)[C@H]2O)[C@](C)(O)C[C@@H](C)C(=NOC)[C@H](C)[C@@H](O)[C@]1(C)O [Example V, 4"-O-[β-(3-Phenylthioureido)-1-Ethyl]sulfonyl Erythromycin-A-9-O-Methyloxime] | 0 | 0 | 0 | 20 | 80 | – |
| CC[C@H]1OC(=O)[C@H](C)[C@@H](O[C@H]2C[C@@](C)(OC)[C@@H](OS(=O)(=O)CCNC(=O)c3ccc([N+](=O)[O-])cc3)[C@H](C)O2)[C@H](C)[C@@H](O[C@@H]2O[C@H](C)C[C@H](N(C)C)[C@H]2O)[C@](C)(O)C[C@@H](C)C(=NOC)[C@H](C)[C@@H](O)[C@]1(C)O [Example XV, 4"-O-[β-(p-Nitrobenzamido)ethyl]Sulfonyl Erythromycin A-9-O-Methyloxime] | 10 | 10 | 0 | 0 | 60 | – |
| CC[C@H]1OC(=O)[C@H](C)[C@@H](O[C@H]2C[C@@](C)(OC)[C@@H](OS(=O)(=O)CCNC(=O)Nc3ccccc3)[C@H](C)O2)[C@H](C)[C@@H](O[C@@H]2O[C@H](C)C[C@H](N(C)C)[C@H]2O)[C@](C)(O)C[C@@H](C)C(=NOC)[C@H](C)[C@@H](O)[C@]1(C)O [VI, 4"-O-[β-(3-Phenylureido)-Ethyl]sulfonyl Erythromycin A-9-O-Methyloxime] | 10 | 20 | 20 | 10 | 50 | – |
| CC[C@H]1OC(=O)[C@H](C)[C@@H](O[C@H]2C[C@@](C)(OC)[C@@H](OS(=O)(=O)CCNC(=O)CNC(=O)OCc3ccccc3)[C@H](C)O2)[C@H](C)[C@@H](O[C@@H]2O[C@H](C)C[C@H](N(C)C)[C@H]2O)[C@](C)(O)C[C@@H](C)C(=NOC)[C@H](C)[C@@H](O)[C@]1(C)O [XII, 4"-O-[β-(N-Carbobenzyloxyglycyl)Amidoethyl]Sulfonyl Erythromycin A-9-O-Methyloxime] | 20 | 0 | 0 | 0 | 30 | > 300 mg/kg |
| CC[C@H]1OC(=O)[C@H](C)[C@@H](O[C@H]2C[C@@](C)(OC)[C@@H](OS(=O)(=O)CCNS(=O)(=O)c3ccc([N+](=O)[O-])cc3)[C@H](C)O2)[C@H](C)[C@@H](O[C@@H]2O[C@H](C)C[C@H](N(C)C)[C@H]2O)[C@](C)(O)C[C@@H](C)C(=NOC)[C@H](C)[C@@H](O)[C@]1(C)O [XVII, 4"-O-[β-(p-Nitrobenzenesulfonamido)Ethyl]Sulfonyl Erythromycin A-9-O-Methyloxime] | 0 | 10 | 10 | 0 | 80 | – |
